# Values quoted from earlier work in patent US7160060B1, “System and method of remediation of contaminants” (priority 2004, dated 2007).
# Details: select chlorinated organics (Table 1)
row,Structure (SMILES),SOLUBILITY IN WATER at 25° C.
1,C=CCl [Vinyl Chloride],"8,800 mg/L"
2,ClC(Cl)=C(Cl)Cl [Perchloroethylene],150 mg/L
3,ClC=C(Cl)Cl [Trichloroethylene],"1,280 mg/L"

# Same assay, conditions: select polycyclic aromatic hydrocarbons (Table 3)
row,Structure (SMILES),SOLUBILITY IN WATER at 25° C. [mg/L]
1,"c1ccc2c(c1)ccc1cc3c(ccc4ccccc43)cc12 [Dibenz(a,h)anthracene]",0.0006
2,c1ccc2cc3ccccc3cc2c1 [Anthracene],0.075
3,c1ccc2c(c1)cc1ccc3cccc4ccc2c1c34 [Benzo(a)pyrene],0.0016
4,c1ccc2c(c1)ccc1c3ccccc3ccc21 [Chrysene],0.00189
5,c1ccc2c(c1)ccc1ccccc12 [Phenanthrene],1.18
6,"c1cc2ccc3ccc4ccc5cccc6c(c1)c2c3c4c56 [Benzo(g,h,i)perylene]",0.00026

# Same assay, conditions: select volatile organic chemicals (BTEX) (Table 2)
row,Structure (SMILES),SOLUBILITY IN WATER at 25° C. [mg/L]
1,"Cc1ccc(C)cc1 [p-xylene isomer, p-xylene]",198
